{"source": "patent US20260070945A1", "about": "“MACROCYCLIC IMMUNOMODULATORS” (Bristol-Myers Squibb Company, priority 2022, published 2026)", "note": "Where a SMILES comes first, the peptide text is derived from it. Bridges are numbered along the chain shown (N, C = ends). [ ]: non-standard residue; d: D form. The star is where a group is joined. ξ: configuration not given here. Phe(4-COOH) = N[C@@H](Cc1ccc(C(=O)O)cc1)C(=O)O; Bip = N[C@@H](Cc1ccc(-c2ccccc2)cc1)C(=O)O; Phe(3-Me) = Cc1cccc(C[C@H](N)C(=O)O)c1; Val(3-OH) = CC(C)(O)[C@H](N)C(=O)O; 3Thi = N[C@@H](Cc1ccsc1)C(=O)O; Cha = N[C@@H](CC1CCCCC1)C(=O)O; Cit = NC(=O)NCCC[C@H](N)C(=O)O; Ile(3ξ) = CCC(C)[C@H](N)C(=O)O; Thr(3ξ) = CC(O)[C@H](N)C(=O)O; Carboxymethyl = O=C(O)C*; NMeA = CN[C@@H](C)C(=O)O; Aun = NCCCCCCCCCCC(=O)O; Dab = NCC[C@H](N)C(=O)O; AEEA = NCCOCCOCC(=O)O"}
{"molecular_target": "T1, PD-1/PD-L1 interaction (PE-labeled human PD-L1-Ig binding to Jurkat cell line over-expressing human PD-1) (Homo sapiens, UniProt Q15116)", "T1 construct": "expressed in transfected cells; host or cells: Jurkat", "T1 sequence (Q15116 25-288)": "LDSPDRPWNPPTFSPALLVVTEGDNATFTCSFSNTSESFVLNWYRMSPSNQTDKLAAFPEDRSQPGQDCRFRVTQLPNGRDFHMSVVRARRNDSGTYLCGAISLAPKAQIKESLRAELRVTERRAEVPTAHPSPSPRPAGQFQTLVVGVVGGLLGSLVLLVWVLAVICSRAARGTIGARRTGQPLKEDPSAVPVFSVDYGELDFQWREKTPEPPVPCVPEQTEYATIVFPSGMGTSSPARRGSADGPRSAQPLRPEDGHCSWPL", "assay": "Jurkat-PD-1 Cell Binding High-Content Screening Assay (CBA)", "conditions": "PE-labeled PD-L1-Ig 20 nM final, Jurkat-hPD-1 cells; read-out: Jurkat HPD1 PDL1 IC50", "in_short": "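In this imaging assay, cells in 10% FCS medium see compound for 2 h at 37 °C and then labeled ligand at 20 nM final for 1 h. Paraformaldehyde fixation, Hoechst 33342 staining and dPBS washes precede image capture.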", "units": {"IC50": "nM"}}
{"smiles": "Cc1cccc(C[C@@H]2NC(=O)[C@H](CC(=O)O)NC(=O)[C@H](Cc3ccc(OCC(=O)O)cc3)NC(=O)[C@H](C(C)C)NC(=O)CSC[C@@H](C(=O)N[C@@H](CCN)C(=O)NCCOCCOCC(=O)NCCCCCCCCCCC(=O)O)NC(=O)[C@H](CCC(=O)O)NC(=O)[C@H](C(C)(C)O)NC(=O)[C@H](CC3CCCCC3)NC(=O)[C@H](CCN)NC(=O)[C@@H](CC(C)C)NC(=O)[C@H](C)N(C)C(=O)[C@H](Cc3ccc(C(=O)O)cc3)NC(=O)[C@H](Cc3ccc(-c4ccccc4)cc3)NC(=O)[C@H](Cc3ccc(C(=O)O)cc3)NC2=O)c1", "note": "[Example 2511] ({CH2CO}-VY(Carboxymethyl)D[Phe(3-Me)][Phe(4-COOH)][Bip][Phe(4-COOH)][NMeA][dL][Dab][Cha][Val(3-OH)]EC[Dab][AEEA][Aun]-OH; thioether N-14)", "IC50": 16.1}
{"smiles": "Cc1cccc(C[C@@H]2NC(=O)[C@H](CC(=O)O)NC(=O)[C@H](Cc3ccc(OCC(=O)O)cc3)NC(=O)[C@H](Cc3ccsc3)NC(=O)CSC[C@@H](C(=O)N[C@@H](CCN)C(=O)NCCCCCCCCCCC(=O)O)NC(=O)[C@H](CO)NC(=O)[C@H](C(C)(C)O)NC(=O)[C@H](CC3CCCCC3)NC(=O)[C@H](CCN)NC(=O)[C@@H](CC(C)C)NC(=O)[C@H](C)N(C)C(=O)[C@H](Cc3ccc(C(=O)O)cc3)NC(=O)[C@H](Cc3ccc(-c4ccccc4)cc3)NC(=O)[C@H](Cc3ccc(C(=O)O)cc3)NC2=O)c1", "note": "[Example 2513] ({CH2CO}-[3Thi]Y(Carboxymethyl)D[Phe(3-Me)][Phe(4-COOH)][Bip][Phe(4-COOH)][NMeA][dL][Dab][Cha][Val(3-OH)]SC[Dab][Aun]-OH; thioether N-14)", "IC50": 14.4}
{"smiles": "CCC(C)[C@@H]1NC(=O)[C@H](Cc2ccc(-c3ccccc3)cc2)NC(=O)[C@H](C(C)C)NC(=O)[C@H](Cc2c[nH]c3ccccc23)NC(=O)[C@H](CC(=O)O)NC(=O)[C@H](Cc2ccc(OCC(=O)O)cc2)NC(=O)[C@H](Cc2cnc[nH]2)NC(=O)CSC[C@@H](C(=O)N[C@H](C)C(=O)NCCOCCOCC(=O)NCCCCCCCCCCC(=O)O)NC(=O)[C@H](C(C)O)NC(=O)[C@H](C(C)(C)O)NC(=O)[C@H](CC2CCCCC2)NC(=O)[C@H](CCN)NC(=O)[C@@H](CC(C)C)NC(=O)[C@H](C)N(C)C1=O", "note": "(stereo partly drawn) [Example 2514] ({CH2CO}-HY(Carboxymethyl)DWV[Bip][Ile(3ξ)][NMeA][dL][Dab][Cha][Val(3-OH)][Thr(3ξ)]C[dA][AEEA][Aun]-OH; thioether N-14)", "IC50": 16.8}
{"smiles": "CCC(C)[C@@H]1NC(=O)[C@H](Cc2ccc(-c3ccccc3)cc2)NC(=O)[C@H](CC(C)C)NC(=O)[C@H](Cc2c[nH]c3ccccc23)NC(=O)[C@H](CC(=O)O)NC(=O)[C@H](Cc2ccc(OCC(=O)O)cc2)NC(=O)[C@H](Cc2ccc(OCC(=O)O)cc2)NC(=O)CSC[C@@H](C(=O)N[C@@H](CCN)C(=O)NCCOCCOCC(=O)NCCCCCCCCCCC(=O)O)NC(=O)[C@H](Cc2cnc[nH]2)NC(=O)[C@H](C(C)(C)O)NC(=O)[C@H](CC2CCCCC2)NC(=O)[C@H](CCN)NC(=O)[C@@H](CC(C)C)NC(=O)[C@H](C)N(C)C1=O", "note": "(stereo partly drawn) [Example 2515] ({CH2CO}-Y(Carboxymethyl)Y(Carboxymethyl)DWL[Bip][Ile(3ξ)][NMeA][dL][Dab][Cha][Val(3-OH)]HC[Dab][AEEA][Aun]-OH; thioether N-14)", "IC50": 3.1}
{"smiles": "CC(C)C[C@@H]1NC(=O)[C@H](Cc2c[nH]c3ccccc23)NC(=O)[C@H](CC(=O)O)NC(=O)[C@H](Cc2ccc(OCC(=O)O)cc2)NC(=O)[C@H](Cc2ccc(OCC(=O)O)cc2)NC(=O)CSC[C@@H](C(=O)N[C@@H](CCN)C(=O)NCCOCCOCC(=O)NCCCCCCCCCCC(=O)O)NC(=O)[C@H](CCC(=O)O)NC(=O)[C@H](C(C)(C)O)NC(=O)[C@H](CC2CCCCC2)NC(=O)[C@H](CCN)NC(=O)[C@@H](CC(C)C)NC(=O)[C@H](C)N(C)C(=O)[C@H](CCC(N)=O)NC(=O)[C@H](Cc2ccc(-c3ccccc3)cc2)NC1=O", "note": "[Example 2516] ({CH2CO}-Y(Carboxymethyl)Y(Carboxymethyl)DWL[Bip]Q[NMeA][dL][Dab][Cha][Val(3-OH)]EC[Dab][AEEA][Aun]-OH; thioether N-14)", "IC50": 20.7}
{"smiles": "CC(C)C[C@@H]1NC(=O)[C@H](Cc2c[nH]c3ccccc23)NC(=O)[C@H](CC(=O)O)NC(=O)[C@H](Cc2ccc(OCC(=O)O)cc2)NC(=O)[C@H](Cc2ccc(OCC(=O)O)cc2)NC(=O)CSC[C@@H](C(=O)N[C@@H](CCN)C(=O)NCCOCCOCC(=O)NCCOCCOCC(=O)NCCCCCCCCCCC(=O)O)NC(=O)[C@H](CCC(=O)O)NC(=O)[C@H](C(C)(C)O)NC(=O)[C@H](CC2CCCCC2)NC(=O)[C@H](CCN)NC(=O)[C@@H](CC(C)C)NC(=O)[C@H](C)N(C)C(=O)[C@H](CCC(N)=O)NC(=O)[C@H](Cc2ccc(-c3ccccc3)cc2)NC1=O", "note": "[Example 2517] ({CH2CO}-Y(Carboxymethyl)Y(Carboxymethyl)DWL[Bip]Q[NMeA][dL][Dab][Cha][Val(3-OH)]EC[Dab][AEEA][AEEA][Aun]-OH; thioether N-14)", "IC50": 30}
{"smiles": "Cc1cccc(C[C@@H]2NC(=O)[C@H](CC(=O)O)NC(=O)[C@H](Cc3ccc(OCC(=O)O)cc3)NC(=O)[C@H](CCN)NC(=O)CSC[C@@H](C(=O)N[C@@H](CCN)C(=O)NCCOCCOCC(=O)NCCOCCOCC(=O)NCCCCCCCCCCC(=O)O)NC(=O)[C@H](CCC(=O)O)NC(=O)[C@H](C(C)(C)O)NC(=O)[C@H](CC3CCCCC3)NC(=O)[C@H](CCN)NC(=O)[C@@H](CC(C)C)NC(=O)[C@H](C)N(C)C(=O)[C@H](Cc3ccc(C(=O)O)cc3)NC(=O)[C@H](Cc3ccc(-c4ccccc4)cc3)NC(=O)[C@H](Cc3ccc(C(=O)O)cc3)NC2=O)c1", "note": "[Example 2518] ({CH2CO}-[Dab]Y(Carboxymethyl)D[Phe(3-Me)][Phe(4-COOH)][Bip][Phe(4-COOH)][NMeA][dL][Dab][Cha][Val(3-OH)]EC[Dab][AEEA][AEEA][Aun]-OH; thioether N-14)", "IC50": 14.3}
{"smiles": "Cc1cccc(C[C@@H]2NC(=O)[C@H](CC(=O)O)NC(=O)[C@H](Cc3ccc(C(=O)O)cc3)NC(=O)[C@H](CCN)NC(=O)CSC[C@@H](C(=O)N[C@@H](CCN)C(=O)NCCOCCOCC(=O)NCCOCCOCC(=O)NCCCCCCCCCCC(=O)O)NC(=O)[C@H](CCC(=O)O)NC(=O)[C@H](C(C)(C)O)NC(=O)[C@H](CC3CCCCC3)NC(=O)[C@H](CCN)NC(=O)[C@@H](CC(C)C)NC(=O)[C@H](C)N(C)C(=O)[C@H](Cc3ccc(C(=O)O)cc3)NC(=O)[C@H](Cc3ccc(-c4ccccc4)cc3)NC(=O)[C@H](Cc3ccc(C(=O)O)cc3)NC2=O)c1", "note": "[Example 2519] ({CH2CO}-[Dab][Phe(4-COOH)]D[Phe(3-Me)][Phe(4-COOH)][Bip][Phe(4-COOH)][NMeA][dL][Dab][Cha][Val(3-OH)]EC[Dab][AEEA][AEEA][Aun]-OH; thioether N-14)", "IC50": 13.1}
{"smiles": "Cc1cccc(C[C@@H]2NC(=O)[C@H](CC(=O)O)NC(=O)[C@H](Cc3ccc(OCC(=O)O)cc3)NC(=O)[C@H](CCN)NC(=O)CSC[C@@H](C(=O)N[C@@H](CCN)C(=O)NCCOCCOCC(=O)NCCOCCOCC(=O)NCCCCCCCCCCC(=O)O)NC(=O)[C@H](Cc3cnc[nH]3)NC(=O)[C@H](C(C)(C)O)NC(=O)[C@H](CC3CCCCC3)NC(=O)[C@H](CCN)NC(=O)[C@@H](CC(C)C)NC(=O)[C@H](C)N(C)C(=O)[C@H](Cc3ccc(OCC(=O)O)cc3)NC(=O)[C@H](Cc3ccc(-c4ccccc4)cc3)NC(=O)[C@H](Cc3ccc(OCC(=O)O)cc3)NC2=O)c1", "note": "[Example 2520] ({CH2CO}-[Dab]Y(Carboxymethyl)D[Phe(3-Me)]Y(Carboxymethyl)[Bip]Y(Carboxymethyl)[NMeA][dL][Dab][Cha][Val(3-OH)]HC[Dab][AEEA][AEEA][Aun]-OH; thioether N-14)", "IC50": 8}
{"smiles": "Cc1cccc(C[C@@H]2NC(=O)[C@H](CC(=O)O)NC(=O)[C@H](Cc3ccc(C(=O)O)cc3)NC(=O)[C@H](CCN)NC(=O)CSC[C@@H](C(=O)N[C@@H](CCN)C(=O)NCCOCCOCC(=O)NCCOCCOCC(=O)NCCCCCCCCCCC(=O)O)NC(=O)[C@H](CCC(=O)O)NC(=O)[C@H](C(C)C)NC(=O)[C@H](CC3CCCCC3)NC(=O)[C@H](CCN)NC(=O)[C@@H](CC(C)C)NC(=O)[C@H](C)N(C)C(=O)[C@H](Cc3ccc(C(=O)O)cc3)NC(=O)[C@H](Cc3ccc(-c4ccccc4)cc3)NC(=O)[C@H](Cc3ccc(C(=O)O)cc3)NC2=O)c1", "note": "[Example 2521] ({CH2CO}-[Dab][Phe(4-COOH)]D[Phe(3-Me)][Phe(4-COOH)][Bip][Phe(4-COOH)][NMeA][dL][Dab][Cha]VEC[Dab][AEEA][AEEA][Aun]-OH; thioether N-14)", "IC50": 13.4}
{"smiles": "CCC(C)[C@@H]1NC(=O)[C@H](Cc2ccc(-c3ccccc3)cc2)NC(=O)[C@H](C(C)C)NC(=O)[C@H](Cc2c[nH]c3ccccc23)NC(=O)[C@H](CC(=O)O)NC(=O)[C@H](Cc2ccc(C(=O)O)cc2)NC(=O)[C@H](Cc2ccc(OCC(=O)O)cc2)NC(=O)CSC[C@@H](C(=O)N[C@@H](CCN)C(=O)NCCOCCOCC(=O)NCCCCCCCCCCC(=O)O)NC(=O)[C@H](C(C)O)NC(=O)[C@H](C(C)(C)O)NC(=O)[C@H](CC2CCCCC2)NC(=O)[C@H](Cc2cnc[nH]2)NC(=O)[C@@H](CC(C)C)NC(=O)[C@H](C)N(C)C1=O", "note": "(stereo partly drawn) [Example 2522] ({CH2CO}-Y(Carboxymethyl)[Phe(4-COOH)]DWV[Bip][Ile(3ξ)][NMeA][dL]H[Cha][Val(3-OH)][Thr(3ξ)]C[Dab][AEEA][Aun]-OH; thioether N-14)", "IC50": 25.7}
{"smiles": "CCC(C)[C@@H]1NC(=O)[C@H](Cc2ccc(-c3ccccc3)cc2)NC(=O)[C@H](C(C)C)NC(=O)[C@H](Cc2c[nH]c3ccccc23)NC(=O)[C@H](CC(=O)O)NC(=O)[C@H](Cc2ccc(C(=O)O)cc2)NC(=O)[C@H](Cc2ccc(OCC(=O)O)cc2)NC(=O)CSC[C@@H](C(=O)N[C@@H](CCN)C(=O)NCCOCCOCC(=O)NCCCCCCCCCCC(=O)O)NC(=O)[C@H](CCCNC(N)=O)NC(=O)[C@H](C(C)(C)O)NC(=O)[C@H](CC2CCCCC2)NC(=O)[C@H](Cc2cnc[nH]2)NC(=O)[C@@H](CC(C)C)NC(=O)[C@H](C)N(C)C1=O", "note": "(stereo partly drawn) [Example 2523] ({CH2CO}-Y(Carboxymethyl)[Phe(4-COOH)]DWV[Bip][Ile(3ξ)][NMeA][dL]H[Cha][Val(3-OH)][Cit]C[Dab][AEEA][Aun]-OH; thioether N-14)", "IC50": 7.1}
